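Compound exposure: 48 hours, 5 concentrations, 96-well plates. Abbreviation: GI50, concentration required for 50% inhibition of growth.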 Activity calls are given as the source filed them. No stated cut-off is given here; in the data, active = GI50 up to about 1.1 µM and inactive = higher.
Assays:
Experiment in all cases: inhibition of tumour cell growth, NCI panel, 48 h
[1] = test system: A498
[2] = test system: A549
[3] = test system: ACHN
[4] = test system: HL-60
[5] = test system: HT-29
[6] = test system: IGROV-1
[7] = test system: K562
[8] = test system: LOX IMVI
[9] = test system: Malme-3M
[10] = test system: NCI-H226
[11] = test system: NCI-H522
[12] = test system: SF-539
[13] = test system: SK-MEL-28
[14] = test system: SN12C
[15] = test system: SW-620
[16] = test system: TK-10
[17] = test system: UACC-62
[18] = test system: SK-MEL-2

| SMILES | GI50 [1] | GI50 [2] | GI50 [3] | GI50 [4] | GI50 [5] | GI50 [6] | GI50 [7] | GI50 [8] | GI50 [9] | GI50 [10] | GI50 [11] | GI50 [12] | GI50 [13] | GI50 [14] | GI50 [15] | GI50 [16] | GI50 [17] | GI50 [18] |
| --- | --- | --- | --- | --- | --- | --- | --- | --- | --- | --- | --- | --- | --- | --- | --- | --- | --- | --- |
| Clc1ccc(Cl)c2[s+]snc12 | > 100 µM (inactive) | > 100 µM (inactive) | > 79.1 µM (inactive) | 50.7 µM (inactive) | 25 µM (inactive) | > 100 µM (inactive) | > 45.8 µM (inactive) | 31 µM (inactive) | > 49.5 µM (inactive) | > 100 µM (inactive) | 18.1 µM (inactive) | 46 µM (inactive) | > 100 µM (inactive) | > 79.3 µM (inactive) | 23.6 µM (inactive) | > 100 µM (inactive) | 43.4 µM (inactive) |  |
| O=C(Cn1ccnc1[N+](=O)[O-])c1ccc(F)cc1 | > 100 µM (inactive) | > 100 µM (inactive) | > 100 µM (inactive) | > 100 µM (inactive) | > 100 µM (inactive) | > 100 µM (inactive) | > 100 µM (inactive) | > 100 µM (inactive) | > 100 µM (inactive) | > 100 µM (inactive) | > 100 µM (inactive) | > 100 µM (inactive) | > 100 µM (inactive) | > 100 µM (inactive) | > 100 µM (inactive) | > 100 µM (inactive) | > 100 µM (inactive) | > 100 µM (inactive) |
| COc1ccc(C(=O)Cc2ccc(Br)cc2)cc1OC | 40.4 µM (inactive) | > 100 µM (inactive) | > 100 µM (inactive) | > 100 µM (inactive) | > 100 µM (inactive) | > 100 µM (inactive) | > 100 µM (inactive) | > 100 µM (inactive) | > 100 µM (inactive) | > 100 µM (inactive) | 79.3 µM (inactive) | > 100 µM (inactive) |  | > 100 µM (inactive) | > 100 µM (inactive) | 56 µM (inactive) | > 100 µM (inactive) | > 100 µM (inactive) |
| N#COc1ccc(Oc2ccc(OC#N)cc2)cc1 | > 100 µM (inactive) | > 100 µM (inactive) | 35.5 µM (inactive) | 46.3 µM (inactive) | 70.6 µM (inactive) | > 100 µM (inactive) | 36.7 µM (inactive) | 19.3 µM (inactive) | > 100 µM (inactive) | > 100 µM (inactive) | 43.4 µM (inactive) | 43.5 µM (inactive) | > 100 µM (inactive) | 55.5 µM (inactive) |  | > 100 µM (inactive) | 47.1 µM (inactive) | > 100 µM (inactive) |
| Cc1cc(C)nc(NS(=O)(=O)c2ccc(NC(=O)COC(=O)c3cccc4c(=O)c5ccccc5[nH]c34)cc2)n1 | 30.3 µM (inactive) | > 100 µM (inactive) | 47.5 µM (inactive) | 26.9 µM (inactive) | 33 µM (inactive) | 43.5 µM (inactive) | 32 µM (inactive) | 20.5 µM (inactive) | 26.7 µM (inactive) | 53.3 µM (inactive) | 27.2 µM (inactive) | 19.5 µM (inactive) | 31.7 µM (inactive) | 40.4 µM (inactive) | 31.8 µM (inactive) | 76.4 µM (inactive) | 19.5 µM (inactive) |  |
| c1ccc2c(c1)[nH]c1c2ncc2[nH]c3ccccc3c21 | 2.72 µM (inactive) | 4.65 µM (inactive) | 4.24 µM (inactive) | 2 µM (inactive) | 2.88 µM (inactive) | 5.19 µM (inactive) | 2.55 µM (inactive) | 1.94 µM (inactive) | 19.4 µM (inactive) | 14 µM (inactive) | 4.74 µM (inactive) | 2.61 µM (inactive) | 11.7 µM (inactive) | 3.51 µM (inactive) | 2.9 µM (inactive) | 7.33 µM (inactive) | 1.76 µM (inactive) | 7.29 µM (inactive) |
| Cc1c2cc[n+](C)cc2c(C)c2c1[nH]c1ccccc12 | 4.26 µM (inactive) | 0.225 µM (active) |  | 9.62 µM (inactive) | 5.83 µM (inactive) | 3.44 µM (inactive) | 2.79 µM (inactive) | 10.9 µM (inactive) | 0.855 µM (active) | 0.34 µM (active) | 0.869 µM (active) | 0.468 µM (active) | 1.34 µM (inactive) | 0.16 µM (active) | 1.17 µM (inactive) |  | 4.5 µM (inactive) | 1.11 µM (active) |
| CN(C)C(=N)NC(=S)N(C)C | > 100 µM (inactive) | > 100 µM (inactive) | > 100 µM (inactive) | > 100 µM (inactive) | > 100 µM (inactive) | > 100 µM (inactive) | > 100 µM (inactive) | > 100 µM (inactive) | > 100 µM (inactive) | 17.2 µM (inactive) | > 100 µM (inactive) | > 100 µM (inactive) | > 100 µM (inactive) | > 100 µM (inactive) | > 100 µM (inactive) | > 100 µM (inactive) | > 100 µM (inactive) | > 100 µM (inactive) |
| CC(C)NC(=O)OCc1c2c(n(C)c1COC(=O)NC(C)C)-c1ccccc1CC2 | 23.4 µM (inactive) | 23.7 µM (inactive) |  | 2.55 µM (inactive) | 15.2 µM (inactive) | 14 µM (inactive) | 4.26 µM (inactive) | 9.31 µM (inactive) | 5.51 µM (inactive) | 11.9 µM (inactive) | 5.32 µM (inactive) | 15.4 µM (inactive) | 13 µM (inactive) | 13 µM (inactive) | 9.2 µM (inactive) |  | 12.7 µM (inactive) | 14.5 µM (inactive) |
| O=C(Cc1nc2ccc(C(=O)c3ccccc3)cc2nc1O)C(=O)Nc1ccc(C(F)(F)F)cc1[N+](=O)[O-] | 90.4 µM (inactive) | > 100 µM (inactive) | > 100 µM (inactive) | 31.6 µM (inactive) | 50.9 µM (inactive) | > 100 µM (inactive) | 27.6 µM (inactive) | 39.4 µM (inactive) | > 100 µM (inactive) | 87.1 µM (inactive) | 31.3 µM (inactive) | 53.3 µM (inactive) | 82.6 µM (inactive) | > 100 µM (inactive) | 47.4 µM (inactive) | > 100 µM (inactive) | 38.9 µM (inactive) | > 100 µM (inactive) |
| C/C(=N\O)C(CN(C)C)C(c1ccccc1)c1c(O)c2ccccc2oc1=O (stereo unspecified) | > 100 µM (inactive) | > 100 µM (inactive) |  | > 100 µM (inactive) | > 100 µM (inactive) | > 100 µM (inactive) | > 100 µM (inactive) | > 100 µM (inactive) | > 100 µM (inactive) | > 100 µM (inactive) | > 100 µM (inactive) | > 100 µM (inactive) | > 100 µM (inactive) | > 100 µM (inactive) | > 100 µM (inactive) | > 100 µM (inactive) | > 100 µM (inactive) | > 100 µM (inactive) |
| O=S1(=O)C[C@@H](O)[C@H](O)CS1 | > 100 µM (inactive) | > 100 µM (inactive) | > 100 µM (inactive) | > 100 µM (inactive) | > 100 µM (inactive) | > 100 µM (inactive) | > 100 µM (inactive) | > 100 µM (inactive) | > 100 µM (inactive) | > 100 µM (inactive) | > 100 µM (inactive) | > 100 µM (inactive) | > 100 µM (inactive) | > 100 µM (inactive) | > 100 µM (inactive) | > 100 µM (inactive) | > 100 µM (inactive) |  |
